{
  "source": "patent US4639452A",
  "about": "“Arylic derivatives of piperazine, the method of preparing same and their application in therapeutics” (Delalande S.A., priority 1982, dated 1987)",
  "key": {"male SWISS-WEBSTER mice": {"system": "male SWISS-WEBSTER mice", "test": "mnesic retention test of exploratory activity (APELAB ACTIMETER)", "assay_type": "in vivo", "details": "re-measured after a week; for inhibition in vivo at 10 mg/kg: dose 10 mg/kg i.v."}, "[1]": {"test": "approximate acute toxicity (MILLER and TAINTER)", "details": "mouse, in vivo, mice", "procedure": "The approximate acute toxicity is determined according to the method described by MILLER and TAINTER in Proc. Soc. Exp. Biol. Med. 57, 261 (1944)."}, "[2]": {"details": "Mus musculus, iv, 168 h, dose 3 mg/kg i.v., read-out: Mnesic test: % reduction of the exploratory activity"}, "[3]": {"details": "Mus musculus, iv, 168 h, read-out: Mnesic test: % reduction of the exploratory activity"}, "[4]": {"details": "Mus musculus, iv, 168 h, dose 1 mg/kg i.v., read-out: Mnesic test: % reduction of the exploratory activity"}},
  "data": [
    {"molecule": "COc1cc(/C=C/C(=O)N2CCN(CC(N)=O)CC2)cc(OC)c1OC", "note": "[Code number 11, trans-1-(3,4,5-trimethoxy)cinnamoyl 4-aminocarbonylmethyl piperazine]", "values": [
      {"measurement": "inhibition in vivo at 3 mg/kg", "setting": "male SWISS-WEBSTER mice; [2]", "value": 28.4, "unit": "%"},
      {"measurement": "mortality", "setting": "[1]; iv, dose 200 mg/kg i.v.", "value": 0, "unit": "%"}
    ]},
    {"molecule": "COc1cc(/C=C/C(=O)N2CCN(CC(=O)NC3CCCC3)CC2)cc(OC)c1OC", "note": "[compound 23]", "values": [
      {"measurement": "inhibition in vivo at 3 mg/kg", "setting": "male SWISS-WEBSTER mice; [2]", "value": 18.4, "unit": "%"},
      {"measurement": "mortality", "setting": "[1]; iv, dose 200 mg/kg i.v.", "value": 0, "unit": "%"}
    ]},
    {"molecule": "COc1cc(/C=C/C(=O)N2CCN(CC(=O)NC(C)C)CC2)ccc1O", "note": "[compound 26]", "values": [
      {"measurement": "inhibition in vivo at 10 mg/kg", "setting": "male SWISS-WEBSTER mice; [3]", "value": 14.3, "unit": "%"}
    ]},
    {"molecule": "COc1cc(/C=C/C(=O)N2CCN(CC(=O)NCc3cc(OC)c(OC)c(OC)c3)CC2)cc(OC)c1OC", "note": "[compound 29]", "values": [
      {"measurement": "inhibition in vivo at 3 mg/kg", "setting": "male SWISS-WEBSTER mice; [2]", "value": 9.9, "unit": "%"},
      {"measurement": "mortality", "setting": "[1]; iv, dose 200 mg/kg i.v.", "value": 0, "unit": "%"}
    ]},
    {"molecule": "O=C(/C=C/c1ccccc1)N1CCN(CC(=O)N2CCCC2)CC1", "note": "[compound 36]", "values": [
      {"measurement": "inhibition in vivo at 10 mg/kg", "setting": "male SWISS-WEBSTER mice; [3]", "value": 18.4, "unit": "%"},
      {"measurement": "mortality", "setting": "[1]; iv, dose 200 mg/kg i.v.", "value": 0, "unit": "%"}
    ]},
    {"molecule": "O=C(/C=C/c1ccc2c(c1)OCO2)N1CCN(CC(=O)N2CCCC2)CC1", "note": "[compound 37]", "values": [
      {"measurement": "inhibition in vivo at 1 mg/kg", "setting": "male SWISS-WEBSTER mice; [4]", "value": 25.2, "unit": "%"},
      {"measurement": "mortality", "setting": "[1]; ip, dose 400 mg/kg i.p.", "value": 0, "unit": "%"}
    ]},
    {"molecule": "O=C(/C=C/c1ccc(F)cc1)N1CCN(CC(=O)N2CCCC2)CC1", "note": "[compound 38]", "values": [
      {"measurement": "inhibition in vivo at 3 mg/kg", "setting": "male SWISS-WEBSTER mice; [2]", "value": 28.6, "unit": "%"},
      {"measurement": "mortality", "setting": "[1]; iv, dose 200 mg/kg i.v.", "value": 10, "unit": "%"}
    ]},
    {"molecule": "O=C(/C=C/c1ccc(Cl)c(Cl)c1)N1CCN(CC(=O)N2CCCC2)CC1", "note": "[compound 40]", "values": [
      {"measurement": "inhibition in vivo at 3 mg/kg", "setting": "male SWISS-WEBSTER mice; [2]", "value": 28.9, "unit": "%"},
      {"measurement": "mortality", "setting": "[1]; iv, dose 120 mg/kg i.v.", "value": 50, "unit": "%"}
    ]},
    {"molecule": "COc1cc(/C=C/C(=O)N2CCN(CC(=O)N3CCCC3)CC2)cc(OC)c1", "note": "[compound 43]", "values": [
      {"measurement": "inhibition in vivo at 10 mg/kg", "setting": "male SWISS-WEBSTER mice; [3]", "value": 23.8, "unit": "%"}
    ]},
    {"molecule": "O=C(/C=C/c1ccc(Cl)cc1)N1CCN(CC(=O)N2CCCC2)CC1", "note": "[compound 47]", "values": [
      {"measurement": "inhibition in vivo at 1 mg/kg", "setting": "male SWISS-WEBSTER mice; [4]", "value": 26.5, "unit": "%"},
      {"measurement": "mortality", "setting": "[1]; iv, dose 200 mg/kg i.v.", "value": 0, "unit": "%"}
    ]},
    {"molecule": "COc1ccccc1/C=C/C(=O)N1CCN(CC(=O)N2CCCC2)CC1", "note": "[compound 48]", "values": [
      {"measurement": "inhibition in vivo at 30 mg/kg", "setting": "male SWISS-WEBSTER mice; Mus musculus, iv, 168 h, dose 30 mg/kg i.v., read-out: Mnesic test: % reduction of the exploratory activity", "value": 26.1, "unit": "%"},
      {"measurement": "mortality", "setting": "[1]; iv, dose 200 mg/kg i.v.", "value": 0, "unit": "%"}
    ]},
    {"molecule": "COc1ccc(OC)c(/C=C/C(=O)N2CCN(CC(=O)N3CCCC3)CC2)c1", "note": "[compound 49]", "values": [
      {"measurement": "inhibition in vivo at 1 mg/kg", "setting": "male SWISS-WEBSTER mice; [4]", "value": 15.7, "unit": "%"},
      {"measurement": "mortality", "setting": "[1]; iv, dose 205 mg/kg i.v.", "value": 50, "unit": "%"}
    ]},
    {"molecule": "O=C(/C=C/c1ccc2c(c1)OCO2)N1CCN(CC(=O)N2CCCCC2)CC1", "note": "[compound 55]", "values": [
      {"measurement": "inhibition in vivo at 3 mg/kg", "setting": "male SWISS-WEBSTER mice; [2]", "value": 18.7, "unit": "%"}
    ]},
    {"molecule": "O=C(/C=C/c1ccc(Cl)cc1)N1CCN(CC(=O)N2CCCCC2)CC1", "note": "[compound 56]", "values": [
      {"measurement": "inhibition in vivo at 3 mg/kg", "setting": "male SWISS-WEBSTER mice; [2]", "value": 23.5, "unit": "%"}
    ]},
    {"molecule": "trans-1-(3,4,5-trimethoxy)cinnamoyl 4-(2-hydroxy)ethyl piperazine maleate [Code number 2]", "values": [
      {"measurement": "Mnesic test: % reduction of the exploratory activity", "setting": "male SWISS-WEBSTER mice; dose 3 mg/kg i.v.", "value": 17.5, "unit": "%"}
    ]},
    {"molecule": "trans-1-(3,4-methylenedioxy)cinnamoyl 4-pyrrolidinocarbonyl piperazine, hydrochloride [Code number 37]", "values": [
      {"measurement": "Mnesic test: % reduction of the exploratory activity", "setting": "male SWISS-WEBSTER mice; dose 1 mg/kg i.v.", "value": 14.7, "unit": "%"}
    ]}
  ]
}
